Where two headings read alike, the source gives them in different places.
Experiments:
Type in all cases: biochemical
Human PI3K alpha = target: T1, Human PI3K alpha (Homo sapiens, UniProt P42336); assay: Human PI3K alpha enzyme assay (HTRF)
T1 construct: His (N); host or cells: SF9 insect cells (baculovirus)

Human PI3K beta = target: T2, Human PI3K beta (Homo sapiens, UniProt P42338); assay: Human PI3K beta enzyme assay (HTRF)
T2 construct: His (N); host or cells: SF9 insect cells (baculovirus)
Outline: (§1)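 Compounds were mixed with 25 uM ATP, then with 3.5 uM di-C8 PI(4,5)P2 and His-tagged PI3K isoform (β 5.25 nM, δ 0.75 nM, γ 5 nM) at pH 7.00. After 30 min at room temperature, EDTA stopped the reaction and PIP3 was measured by HTRF over 1 h.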

Human PI3K delta = target: T3, Human PI3K delta (Homo sapiens, UniProt O00329); assay: Human PI3K delta enzyme assay (HTRF)
T3 construct: His (N); host or cells: SF9 insect cells (baculovirus)
T3 sequence (O00329 whole entry): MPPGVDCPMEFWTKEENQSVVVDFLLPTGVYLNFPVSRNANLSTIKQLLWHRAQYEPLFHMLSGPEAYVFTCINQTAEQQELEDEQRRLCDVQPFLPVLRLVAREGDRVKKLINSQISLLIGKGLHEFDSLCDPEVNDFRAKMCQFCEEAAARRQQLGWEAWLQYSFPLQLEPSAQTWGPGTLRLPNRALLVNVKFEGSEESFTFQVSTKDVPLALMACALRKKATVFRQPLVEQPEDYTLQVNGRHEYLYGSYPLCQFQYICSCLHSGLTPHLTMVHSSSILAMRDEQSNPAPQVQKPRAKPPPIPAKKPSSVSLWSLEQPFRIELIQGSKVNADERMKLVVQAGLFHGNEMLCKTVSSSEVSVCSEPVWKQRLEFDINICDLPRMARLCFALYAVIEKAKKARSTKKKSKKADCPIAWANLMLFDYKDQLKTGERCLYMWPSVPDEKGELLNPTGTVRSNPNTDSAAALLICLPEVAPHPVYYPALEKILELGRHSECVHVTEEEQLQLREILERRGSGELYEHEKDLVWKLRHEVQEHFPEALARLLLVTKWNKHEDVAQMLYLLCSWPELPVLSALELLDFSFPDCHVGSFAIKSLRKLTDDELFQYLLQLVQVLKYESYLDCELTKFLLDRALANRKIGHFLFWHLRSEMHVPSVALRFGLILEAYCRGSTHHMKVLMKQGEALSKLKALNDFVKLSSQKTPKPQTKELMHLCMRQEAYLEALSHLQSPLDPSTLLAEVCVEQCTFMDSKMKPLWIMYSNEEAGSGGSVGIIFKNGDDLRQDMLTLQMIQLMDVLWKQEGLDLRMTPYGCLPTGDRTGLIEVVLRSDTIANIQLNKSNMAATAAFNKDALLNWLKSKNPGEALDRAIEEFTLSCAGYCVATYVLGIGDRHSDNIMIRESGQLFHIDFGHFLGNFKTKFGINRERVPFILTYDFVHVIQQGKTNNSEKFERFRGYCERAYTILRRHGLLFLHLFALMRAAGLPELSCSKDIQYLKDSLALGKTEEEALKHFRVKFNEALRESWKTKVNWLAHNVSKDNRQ
T3 sequence (P27986 whole entry partner): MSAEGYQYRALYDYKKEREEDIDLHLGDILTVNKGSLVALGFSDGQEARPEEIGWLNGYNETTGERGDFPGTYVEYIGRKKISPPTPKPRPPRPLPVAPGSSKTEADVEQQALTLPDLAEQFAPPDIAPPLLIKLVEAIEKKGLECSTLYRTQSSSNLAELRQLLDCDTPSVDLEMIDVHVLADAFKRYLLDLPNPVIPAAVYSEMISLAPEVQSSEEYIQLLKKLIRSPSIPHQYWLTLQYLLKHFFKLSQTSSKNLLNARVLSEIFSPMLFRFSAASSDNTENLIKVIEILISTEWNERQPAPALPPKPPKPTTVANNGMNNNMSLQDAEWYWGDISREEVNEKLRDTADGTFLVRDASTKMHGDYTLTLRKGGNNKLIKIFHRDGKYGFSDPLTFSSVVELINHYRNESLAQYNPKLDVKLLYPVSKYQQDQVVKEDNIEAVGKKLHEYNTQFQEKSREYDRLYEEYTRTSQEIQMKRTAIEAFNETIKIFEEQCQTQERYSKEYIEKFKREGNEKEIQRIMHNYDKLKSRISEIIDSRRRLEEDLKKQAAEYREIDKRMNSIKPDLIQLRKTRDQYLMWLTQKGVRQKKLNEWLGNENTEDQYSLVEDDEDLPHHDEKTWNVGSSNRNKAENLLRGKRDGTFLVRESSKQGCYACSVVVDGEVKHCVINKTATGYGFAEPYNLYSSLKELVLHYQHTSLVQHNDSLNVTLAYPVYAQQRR
Outline: as §1

Human PI3K gamma = target: T4, Human PI3K gamma (Homo sapiens, UniProt P48736); assay: Human PI3K gamma enzyme assay (HTRF)
T4 construct: His (N); host or cells: SF9 insect cells (baculovirus)
T4 sequence (P48736 whole entry): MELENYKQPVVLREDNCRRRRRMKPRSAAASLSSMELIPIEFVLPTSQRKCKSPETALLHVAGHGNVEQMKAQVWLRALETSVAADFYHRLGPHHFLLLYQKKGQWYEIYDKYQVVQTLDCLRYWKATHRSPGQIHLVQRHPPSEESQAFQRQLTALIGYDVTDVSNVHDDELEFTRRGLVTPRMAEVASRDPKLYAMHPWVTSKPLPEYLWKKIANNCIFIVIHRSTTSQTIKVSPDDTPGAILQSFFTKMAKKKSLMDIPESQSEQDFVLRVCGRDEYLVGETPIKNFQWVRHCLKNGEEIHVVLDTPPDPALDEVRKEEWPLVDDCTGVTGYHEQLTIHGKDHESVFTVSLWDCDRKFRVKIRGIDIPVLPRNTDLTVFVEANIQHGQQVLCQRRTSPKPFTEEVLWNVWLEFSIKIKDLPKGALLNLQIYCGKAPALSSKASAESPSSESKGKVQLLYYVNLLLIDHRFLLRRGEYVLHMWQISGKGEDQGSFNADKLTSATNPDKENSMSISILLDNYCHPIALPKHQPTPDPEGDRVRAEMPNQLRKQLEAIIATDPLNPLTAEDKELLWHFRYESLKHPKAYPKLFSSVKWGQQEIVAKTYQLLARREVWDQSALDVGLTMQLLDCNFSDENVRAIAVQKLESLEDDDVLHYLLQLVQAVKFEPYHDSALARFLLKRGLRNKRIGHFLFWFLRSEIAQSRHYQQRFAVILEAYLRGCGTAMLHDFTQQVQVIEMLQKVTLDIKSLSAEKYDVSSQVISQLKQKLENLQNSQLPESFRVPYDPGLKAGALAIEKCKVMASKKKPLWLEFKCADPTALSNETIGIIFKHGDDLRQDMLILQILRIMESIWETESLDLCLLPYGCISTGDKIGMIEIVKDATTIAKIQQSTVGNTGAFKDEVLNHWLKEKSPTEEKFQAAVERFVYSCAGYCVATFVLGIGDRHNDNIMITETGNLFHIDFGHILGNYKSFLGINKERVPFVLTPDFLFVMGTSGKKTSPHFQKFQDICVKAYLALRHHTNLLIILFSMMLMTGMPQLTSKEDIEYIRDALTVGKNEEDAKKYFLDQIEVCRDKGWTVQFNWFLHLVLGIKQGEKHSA
Outline: as §1

Human VPS34 = target: T5, Human VPS34 (Homo sapiens, UniProt Q8NEB9); assay: Human VPS34 enzyme assay (Adapta Universal Kinase Assay); details: at a 1.0 μM concentration; read-out: VPS34 Percent Inhibition
T5 construct: GST (with thrombin site, pDEST20-Thrombin) (N); host or cells: SF9 insect cells (baculovirus)
T5 sequence (Q8NEB9 whole entry): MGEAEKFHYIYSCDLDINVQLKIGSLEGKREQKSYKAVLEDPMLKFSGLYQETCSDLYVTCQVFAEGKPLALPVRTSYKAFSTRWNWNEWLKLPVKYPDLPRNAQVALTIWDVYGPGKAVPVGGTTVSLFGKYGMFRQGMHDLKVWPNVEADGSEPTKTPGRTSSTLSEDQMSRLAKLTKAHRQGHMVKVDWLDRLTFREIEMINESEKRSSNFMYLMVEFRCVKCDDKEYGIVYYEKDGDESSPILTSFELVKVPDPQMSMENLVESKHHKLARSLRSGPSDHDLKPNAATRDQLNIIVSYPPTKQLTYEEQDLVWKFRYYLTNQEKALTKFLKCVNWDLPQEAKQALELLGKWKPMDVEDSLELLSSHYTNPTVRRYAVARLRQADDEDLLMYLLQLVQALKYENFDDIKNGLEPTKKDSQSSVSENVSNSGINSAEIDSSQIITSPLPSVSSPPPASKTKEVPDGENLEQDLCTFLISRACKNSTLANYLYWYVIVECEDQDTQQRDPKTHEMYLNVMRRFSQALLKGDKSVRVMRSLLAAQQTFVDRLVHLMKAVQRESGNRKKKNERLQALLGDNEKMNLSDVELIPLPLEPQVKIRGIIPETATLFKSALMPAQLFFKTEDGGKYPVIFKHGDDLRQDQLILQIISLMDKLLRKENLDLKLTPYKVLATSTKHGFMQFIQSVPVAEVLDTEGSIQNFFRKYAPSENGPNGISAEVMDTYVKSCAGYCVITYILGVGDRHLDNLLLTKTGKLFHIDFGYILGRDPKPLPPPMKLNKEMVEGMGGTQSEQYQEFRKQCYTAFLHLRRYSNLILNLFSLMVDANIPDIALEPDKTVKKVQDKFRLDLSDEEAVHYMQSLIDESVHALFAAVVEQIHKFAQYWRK
Text: The catalytic subunits of PI3Ks are cloned into either pDEST8(p110 alpha) or pDEST10(p110beta, p110delta, and p110gamma) as N-terminal His tagged fusion proteins using the Gateway system (Invitrogen, catalog#11804-010 for pDEST8 and 11806-015 for pDEST10). The sequences are verified before recombinant protein expression using the Baculovirus Expression System with Gateway® Technology. The accession numbers for the subunits are as follows: • p110 alpha (GB:U79143) • p110beta (GB: S67334) • p110delta (GB: U86453) • p110gamma (GB: X83368) • The regulatory subunits of PI3Ks are cloned into pDEST8 as un-tagged protein using the Gateway system (Catalog#11804-010). The sequences are verified before recombinant protein expression using the Baculovirus Expression System with Gateway® Technology. The accession numbers for the subunits are as following: • p85 alpha (GB: BC030815) • p101(GB: AB028925) • VPS34 (accession number GB:BC033004) is cloned into pDEST20—Thombin as N-terminal GST tagged fusion proteins using the Gateway system (Invitrogen, catalog#11804-013). The sequences are verified before recombinant protein expression using the Baculovirus Expression System with Gateway® Technology.
For expression VPS34 was infected at 1MOI in SF9 cells and harvested 72 hours post infection.
For purification, VPS34 is purified by Glutathione Sepharose 4 Fast Flow (GE Healthcare #17-5132-03) followed by HiTrap Q (GE Healthcare #17-1153-01).
3) VPS34 is assayed using Adapta™ Universal Kinase Assay Kit (Invitrogen).
4) Human VPS34 enzyme assay method
100 nL compounds in DMSO are added to wells of a 384 well microtitre plate (Greiner 780076). At room temperature: 5 ul VPS34 reaction buffer (Invitrogen Assay Buffer Q (diluted 1 in 5 with nanopure water) plus 2 mM DTT and 2 mM MnCl2) containing ATP (20 uM, Promega) and 200 uM PI—PS substrate (Invitrogen PV5122) is added followed immediately by 5 ul VPS34 reaction buffer (as above) containing VPS34 (5 nM, Millennium Protein Sciences Group) and the mixture is incubated with shaking at room temperature for 1 hour. Then 5 ul VPS34 stop-detect mix (as per Invitrogen Adapta Assay kit (PV5009) instructions (contains kinase quench buffer, TR-FRET buffer, Adapta Eu anti-ADP antibody and Alexa Fluor 647 ADP tracer)) is added to quench the reaction. The plates are then incubated for 30 minutes at room temperature with shaking and then read on a BMG PheraStar Plus reader.
For the assay methods described above, test compound percent inhibition, at various concentrations, is calculated relative to control (DMSO and EDTA) treated samples. Compound concentration versus percent inhibition curves are fitted to generate IC50 values. One skilled in the art will appreciate that the values generated either as percentage inhibition at a single concentration or IC50 values are subject to experimental variation.

[1] = at a 1.1 μM concentration, read-out: PI3Kα Percent Inhibition
[2] = at a 1.1 μM concentration, read-out: PI3β Percent Inhibition
[3] = at a 1.0 μM concentration, read-out: PI3Kδ Percent Inhibition
[4] = at a 1.0 μM concentration, read-out: PI3Kγ Percent Inhibition
[5] = concentration not given, b1387 states 1.1 μM for PI3K α and β, read-out: p110 alpha Percent Inhibition
[6] = concentration not given, b1387 states 1.1 μM for PI3K α and β, read-out: p110 beta Percent Inhibition
[7] = concentration not given, b1389 states 1.0 μM for PI3K δ and γ, read-out: p110 delta Percent Inhibition
[8] = concentration not given, b1389 states 1.0 μM for PI3K δ and γ, read-out: p110 gamma Percent Inhibition
[9] = concentration not given, b1387 states 1.1 μM for PI3K α and β
[10] = concentration not given, b1389 states 1.0 μM for PI3K δ and γ
[11] = read-out: p110 alpha Percent Inhibition
[12] = read-out: p110 beta Percent Inhibition
[13] = read-out: p110 delta Percent Inhibition
[14] = read-out: p110 gamma Percent Inhibition

T1 sequence (P42336 whole entry): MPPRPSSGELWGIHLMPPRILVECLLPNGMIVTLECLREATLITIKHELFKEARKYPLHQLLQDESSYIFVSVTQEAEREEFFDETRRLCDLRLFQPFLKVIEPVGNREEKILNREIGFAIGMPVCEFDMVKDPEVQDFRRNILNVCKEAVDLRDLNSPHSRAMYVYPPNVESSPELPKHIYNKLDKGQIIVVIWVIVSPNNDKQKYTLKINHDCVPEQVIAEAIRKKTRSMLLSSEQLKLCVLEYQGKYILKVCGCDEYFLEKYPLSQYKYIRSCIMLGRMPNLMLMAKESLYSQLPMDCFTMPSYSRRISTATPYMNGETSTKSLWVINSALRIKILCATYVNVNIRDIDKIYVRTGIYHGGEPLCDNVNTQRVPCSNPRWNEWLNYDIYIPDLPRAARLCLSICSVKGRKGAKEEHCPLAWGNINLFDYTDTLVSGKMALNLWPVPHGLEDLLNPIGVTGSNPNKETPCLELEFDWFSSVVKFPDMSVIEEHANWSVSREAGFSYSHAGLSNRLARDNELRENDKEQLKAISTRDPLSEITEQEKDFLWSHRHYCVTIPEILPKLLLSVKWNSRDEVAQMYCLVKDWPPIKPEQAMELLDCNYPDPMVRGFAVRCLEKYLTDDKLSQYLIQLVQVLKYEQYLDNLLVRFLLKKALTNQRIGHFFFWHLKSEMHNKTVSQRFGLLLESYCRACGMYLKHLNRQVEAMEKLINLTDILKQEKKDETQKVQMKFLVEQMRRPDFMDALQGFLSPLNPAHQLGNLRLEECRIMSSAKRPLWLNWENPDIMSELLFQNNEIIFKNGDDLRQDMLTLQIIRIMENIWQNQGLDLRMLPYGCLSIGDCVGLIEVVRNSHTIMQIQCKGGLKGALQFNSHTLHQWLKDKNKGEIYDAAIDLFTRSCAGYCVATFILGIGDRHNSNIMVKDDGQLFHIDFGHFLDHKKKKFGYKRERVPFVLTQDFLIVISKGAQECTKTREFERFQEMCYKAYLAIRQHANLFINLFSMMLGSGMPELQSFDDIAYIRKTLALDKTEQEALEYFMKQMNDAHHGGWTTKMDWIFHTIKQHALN
T1 sequence (P27986 whole entry partner): as the sequence (P27986 whole entry partner) above

Row | SMILES | inhibition at 1.1 µM (Human PI3K alpha; [1]) [%] | inhibition at 1.1 µM (Human PI3K beta; [2]) [%] | inhibition at 1 µM (Human PI3K delta; [3]) [%] | inhibition at 1 µM (Human PI3K gamma; [4]) [%] | inhibition at 1 µM (Human VPS34) [%] | p110 delta Percent Inhibition (Human PI3K delta; [10]) [%] | further results
1 | N#Cc1ccc(Cc2nc(N3CCOCC3)sc2C(=O)O)cc1 [Compound 93] | 9 | 80 | 46 | 9.5 | 19.2 |  | 
2 | N#Cc1c(N2CCOCC2)sc(C(=O)O)c1Cc1ccc(Cl)c(F)c1 [Compound 94, 3-(4-chloro-3-fluorobenzyl)-4-cyano-5-morpholin-4-ylthiophene-2-carboxylic acid] | 58 | 97 | 102 | 52.6 | 30.6 |  | 
3 | N#Cc1c(C2=CCOCC2)sc(C(=O)O)c1Cc1ccc(Cl)cc1 [Compound 95, 3-(4-chlorobenzyl)-4-cyano-5-(3,6-dihydro-2H-pyran-4-yl)thiophene-2-carboxylic acid] | 68 | 101 | 86.1 | 23.9 | 167 |  | 
4 | N#Cc1c(N2CCOCC2)sc(C(=O)O)c1Cc1ccc(Cl)cc1Cl [Compound 96] | 58 | 109 | 96 | 36.2 | 47.8 |  | 
5 | O=C(O)c1sc(N2CCOCC2)nc1Cc1ccc(F)cc1Cl [Compound 99] | 12 | 72 | 55.4 | 6.4 | 46.7 |  | 
6 | O=C(O)c1sc(C2=CCOCC2)nc1Cc1ccc(Cl)cc1 [Compound 100, 4-(4-chlorobenzyl)-2-(3,6-dihydro-2H-pyran-4-yl)-1,3-thiazole-5-carboxylic acid] | 20 | 98 | 65.5 | 13.2 | 36.6 |  | 
7 | COc1ccc(Cc2nc(N3CCOCC3)sc2C(=O)O)cc1 [Compound 103] | 2 | 71 | 38.6 | 6.4 | 7.2 |  | 
8 | O=C(O)c1sc(N2CCOCC2)nc1Cc1ccc(Cl)cc1Cl [Compound 104] | 26 | 109 | 93 | 28.8 | 63.2 |  | 
9 | N#Cc1c(N2CCOCC2)sc(C(=O)O)c1C(N)c1ccc2ccccc2c1 (stereo not drawn) [Compound 357] |  |  |  |  |  |  | inhibition at 1.1 µM (Human PI3K alpha; [5]): 89%; inhibition at 1.1 µM (Human PI3K beta; [6]): 110%; inhibition at 1 µM (Human PI3K delta; [7]): 110%; inhibition at 1 µM (Human PI3K gamma; [8]): 79%
10 | N#Cc1c(N2CCOCC2)sc(C(=O)O)c1C(F)(F)c1ccc(Cl)cc1 [Compound 358] |  |  |  |  |  |  | inhibition at 1.1 µM (Human PI3K alpha; [5]): 13%; inhibition at 1.1 µM (Human PI3K beta; [6]): 43%; inhibition at 1 µM (Human PI3K delta; [7]): 51%; inhibition at 1 µM (Human PI3K gamma; [8]): 32%
11 | N#Cc1c(N2CCOCC2)sc(C(=O)O)c1Cc1cc2ccc(Cl)cc2[nH]1 [Compound 359] |  |  |  |  |  |  | inhibition at 1.1 µM (Human PI3K alpha; [5]): 90%; inhibition at 1.1 µM (Human PI3K beta; [6]): 109%; inhibition at 1 µM (Human PI3K delta; [7]): 102%; inhibition at 1 µM (Human PI3K gamma; [8]): 64%
12 | c1ccc2cc(Cc3nc(N4CCOCC4)sc3-c3nnn[nH]3)ccc2c1 [Compound 360, 4-[4-(2-naphthylmethyl)-5-(1H-tetrazol-5-yl)-1,3-thiazol-2-yl]morpholine] |  |  |  |  |  | 110 | p110 alpha Percent Inhibition (Human PI3K alpha; [9]): 30%; p110 beta Percent Inhibition (Human PI3K beta; [9]): 106%; p110 gamma Percent Inhibition (Human PI3K gamma; [10]): 49%
13 | COc1ccc2ccc(Cc3c(C(=O)O)sc(N4CCOCC4)c3C#N)cc2c1 [Compound 361] |  |  |  |  |  |  | inhibition at 1.1 µM (Human PI3K alpha; [5]): 104%; inhibition at 1.1 µM (Human PI3K beta; [6]): 115%; inhibition at 1 µM (Human PI3K delta; [7]): 111%; inhibition at 1 µM (Human PI3K gamma; [8]): 60%
14 | CC(c1ccc2ccccc2c1)c1c(C(=O)O)sc(N2CCOCC2)c1C#N (stereo not drawn) [Compound 367, 4-cyano-5-(morpholin-4-yl)-3-[1-(2-naphthyl)ethyl]thiophene-2-carboxylic acid] |  |  |  |  |  |  | inhibition at 1.1 µM (Human PI3K alpha; [11]): 99%; inhibition at 1.1 µM (Human PI3K beta; [12]): 110%; inhibition at 1 µM (Human PI3K delta; [13]): 116%; inhibition at 1 µM (Human PI3K gamma; [14]): 72%
15 | O=C(O)c1[se]c(N2CCOCC2)nc1Cc1ccc(Cl)cc1 [Compound 370, 4-(4-chlorobenzyl)-2-morpholino-1,3-selenazole-5-carboxylic acid] |  |  |  |  |  |  | inhibition at 1.1 µM (Human PI3K alpha; [11]): 22%; inhibition at 1.1 µM (Human PI3K beta; [12]): 98%; inhibition at 1 µM (Human PI3K delta; [13]): 62%; inhibition at 1 µM (Human PI3K gamma; [14]): 12%

Further lines, with some results ahead:

Row | inhibition at 1.1 µM (Human PI3K alpha; [1]) [%] | inhibition at 1.1 µM (Human PI3K beta; [2]) [%] | inhibition at 1 µM (Human PI3K delta; [3]) [%] | inhibition at 1 µM (Human PI3K gamma; [4]) [%] | inhibition at 1 µM (Human VPS34) [%] | p110 delta Percent Inhibition (Human PI3K delta; [10]) [%] | SMILES | further results
16 | 53 | 101 | 89.8 | 17.8 | 45 |  | N#Cc1c(N2CCOCC2)sc(C(=O)O)c1Cc1ccc(F)cc1 [Compound 97] | 
17 | 58 | 111 | 108 | 67.6 | 68.9 |  | O=C(O)c1sc(N2CCOCC2)nc1Cc1ccc2ccccc2c1 [Compound 98] | 
18 | 21 | 98 | 51.2 | 9.8 | 22.6 |  | COc1ccc(Cc2c(C(=O)O)sc(N3CCOCC3)c2C#N)cc1 [Compound 105] | 
19 |  |  |  |  |  | 104 | CN(C)C(c1ccc(Cl)c(Cl)c1)c1c(C(=O)O)sc(N2CCOCC2)c1C#N (stereo not drawn) [Compound 362, 4-cyano-3-[(3,4-dichlorophenyl)(dimethylamino)methyl]-5-(morpholin-4-yl)thiophene-2-carboxylic acid] | p110 alpha Percent Inhibition (Human PI3K alpha; [9]): 80%; p110 beta Percent Inhibition (Human PI3K beta; [9]): 116%; p110 gamma Percent Inhibition (Human PI3K gamma; [10]): 44%
20 |  |  |  |  |  | 106 | N#Cc1c(N2CCOCC2)sc(C(=O)O)c1C(CCO)c1ccc2ccccc2c1 (stereo not drawn) [Compound 363] | p110 alpha Percent Inhibition (Human PI3K alpha; [9]): 99%; p110 beta Percent Inhibition (Human PI3K beta; [9]): 113%; p110 gamma Percent Inhibition (Human PI3K gamma; [10]): 65%
21 |  |  |  |  |  | 101 | N#Cc1c(N2CCOCC2)sc(C(=O)O)c1C(F)c1ccc2ccccc2c1 (stereo not drawn) [Compound 364] | p110 alpha Percent Inhibition (Human PI3K alpha; [9]): 88%; p110 beta Percent Inhibition (Human PI3K beta; [9]): 109%; p110 gamma Percent Inhibition (Human PI3K gamma; [10]): 56%
22 |  |  |  |  |  | 112 | N#Cc1c(N2CCOCC2)sc(C(=O)O)c1C(CCF)c1ccc2ccccc2c1 (stereo not drawn) [Compound 365] | p110 alpha Percent Inhibition (Human PI3K alpha; [9]): 105%; p110 beta Percent Inhibition (Human PI3K beta; [9]): 117%; p110 gamma Percent Inhibition (Human PI3K gamma; [10]): 63%
23 |  |  |  |  |  | 113 | CC(c1ccc(Cl)c(Cl)c1)c1c(C(=O)O)sc(N2CCOCC2)c1C#N (stereo not drawn) [Compound 366] | p110 alpha Percent Inhibition (Human PI3K alpha; [9]): 66%; p110 beta Percent Inhibition (Human PI3K beta; [9]): 113%; p110 gamma Percent Inhibition (Human PI3K gamma; [10]): 77%
24 |  |  |  |  |  | 113 | COC(c1ccc2ccccc2c1)c1c(C(=O)O)sc(N2CCOCC2)c1C#N (stereo not drawn) [Compound 368, 4-cyano-3-[methoxy(2-naphthyl)methyl]-5-(morpholin-4-yl)thiophene-2-carboxylic acid] | inhibition at 1.1 µM (Human PI3K alpha; [5]): 89%; inhibition at 1.1 µM (Human PI3K beta; [6]): 112%; inhibition at 1 µM (Human PI3K gamma; [8]): 87%
25 |  |  |  |  |  | 109 | CC(c1ccc2cc(F)ccc2c1)c1c(C(=O)O)sc(N2CCOCC2)c1C#N (stereo not drawn) [Compound 369] | p110 alpha Percent Inhibition (Human PI3K alpha; [9]): 109%; p110 beta Percent Inhibition (Human PI3K beta; [9]): 115%; p110 gamma Percent Inhibition (Human PI3K gamma; [10]): 65%

Source: US8796268B2, “Heteroaryls and uses thereof” (Millennium Pharmaceuticals, Inc., priority 2010, dated 2014)
